Test results from US4918056A, “2-substituted arabinopyranosyl nucleosides and nucleotides” (priority 1986, dated 1990).

Key:
L1210 leukemia cells [1] = assay: L1210 leukemia cell growth inhibition (48 hr, Coulter counter); format: cell-based, mouse; settings: for IC50: Mus musculus, L1210, RPMI 1640, 10% fetal calf serum; for growth inhibitory activity in words: compared with 85024
Method: Compounds 85024, 85023, 85058, 85027 and 85060 having a glycosidic linkage between the 2'carbon of the arabinose (in pyranose configuration) and base were evaluated for their growth inhibitory action on L1210 leukemia cells maintained in RPMI 1640 medium supplemented with 10% fetal calf serum and 16 mM HEPES, pH 7.2. Cellular growth inhibition was determined by incubating […] for 48 hr in 2 ml of media containing varying concentrations of drugs. Cell growth inhibition (50% growth inhibitory concentration, IC50) was determined after counting cells with a Coulter counter (Bernacki et al., Cancer Res. 45, 695, 1985). Drug concentrations which inhibited cell growth by 50% (IC50) are listed for each compound in Table 1.

L1210 leukemia = assay: Therapeutic activity of 85027, 5-FU and ara-C in DBA/2 mice with L1210 leukemia; format: in vivo, mouse (DBA/2); parameters: Mean ± SD survival: unit not given here; settings: for Median survival: control 6; for Mean ± SD survival: control 6.4 ± 0.2
Method: The therapeutic activity of 85027 was compared with that of 5-Fluorouracil (5-FU) and Cytosine Arabinoside (ara-C) in DBA/2 mice with L1210 Leukemia. (Table 3) Tests were performed in accordance with the procedure described in Example 8. […] 5-FU was administered i.p. on days 1,3 and 6.

L1210/5-FU leukemia = assay: Therapeutic activity in DBA/2N mice with 5-FU resistant L1210 leukemia; format: in vivo, mouse (DBA/2N female)
Method: (§1) In conducting the evaluations, the activity was tested against intraperitoneal (i.p.) implanted leukemia in mice.
(§2) DBA/2N female mice (20 g) were implanted i.p. with 1×10^6 L1210 leukemia cells on day 0. Mice were weighed and inspected for tumor growth and survival daily. […] Dosages varied from 1 to 800 mg/kg/day (mkd).
(§3) Survival time was measured in days after tumor implantation. % ILS (increase in life span) was based on mean survival.
(§4) Testing was followed as described in the NCI protocol and evaluation by comparison of median survival time (ST) of the treated animals to that of the control animals by the percentage increase in % ILS.
(§5) Drug resistant L1210 leukemia cell sublines were obtained from the National Cancer Institute. […] Eight mice were used as controls and five mice for each drug dosage group. Drugs were administered i.p. once per day on days 1, 2, 3, 4 and 5.

L1210 leukemia cells [2] = assay: Reversal of L1210 growth inhibition by salvageable nucleosides; format: cell-based, mouse; settings: for IC50: Mus musculus
Method: Reversal studies were conducted as follows: […], 85027 or 5-FdUr were added at various concentrations near their IC50 to cultures of L1210 leukemia cells, maintained in PRMI 1640 medium supplemented with 10% fetal calf serum and 16mM HEPES, pH 7.2 as described in Example 9. Nucleosides including thymidine (1×10^-5 M), uridine (1×10^-4 M), deoxyuridine ([…]), adenosine (1×10^-4 M), or guanosine (1×10^-5 M) were also added to identical drug (85024, 85027 or 5-FdUr) containing L1210 leukemia cultures. Cellular growth inhibition or its prevention by the addition of salvageable nucleosides was determined 48 hours later by counting cells using an electronic Coulter Counter.

L1210/ara-C leukemia = assay: Therapeutic activity in DBA/2N mice with ara-C resistant L1210 leukemia
Method: as §1, §2, §3, §4, §5

[3] = 5 mkd i.p. (head: × 5; text: × 3, days 1, 3 and 6)
[4] = 25 mkd i.p. (head: × 5; text: × 3, days 1, 3 and 6)

In the case of `COC1OC[C@H]2OC(C)(C)O[C@H]2C1(F)n1ccc(=O)[nH]c1=O` (mixture of isomers) [compound 85023, Methyl 2-deoxy-3,4-0-isopropylidene-2-rac-[1H,3H-2,4-dioxo-1-pyrimidinyl]-2-fluoro-α-D-arabinopyranoside [5g] and Methyl 2-deoxy-3,4-0-isopropylidene-2-rac-[1H,3H-2,4-dioxo-1-pyrimidinyl]-2-fluoro-β-D-arabinopyranoside [6g]], the IC50 (L1210 leukemia cells [1]) is reported as > 100 µM and the “growth inhibitory activity in words” value (L1210 leukemia cells [1]) is reported as “loss in biological inactivity”.
With `O=c1[nH]cc(F)c(=O)[nH]1` [5-FU, 5-Fluorouracil] the “% ILS (increase in life span)” value (L1210 leukemia; 5-FU, 5 mkd i.p. (head: × 5; text: × 3, days 1, 3 and 6), p < .01) was 41%, the “% ILS (increase in life span)” value (L1210 leukemia; 5-FU, 25 mkd i.p. (head: × 5; text: × 3, days 1, 3 and 6), p < .01) was 88% and the “% ILS (increase in life span)” value (L1210 leukemia; 5-FU, 50 mkd × 5 i.p., p < .01) was 34%. The “% ILS (increase in life span)” value (L1210 leukemia; 5-FU, 100 mkd × 5 i.p., p < .05) was 22%, the “% ILS (increase in life span)” value (L1210 leukemia; 5-FU, 200 mkd × 5 i.p., p < .05) was 22% and the “Survival Range” value (L1210 leukemia; [3]) was 9-9 days. For the same compound, the Median survival (L1210 leukemia; [3]) was 9 days, the “Mean ± SD survival” value (L1210 leukemia; [3]) was 9 and the “Survival Range” value (L1210 leukemia; [4]) was 12-12 days. The Median survival (L1210 leukemia; [4]) was 12 days, the “Mean ± SD survival” value (L1210 leukemia; [4]) was 12 and the toxicity to mice (L1210 leukemia; 50, 100 and 200 mkd × 5 i.p.) was “extremely toxic to mice causing severe weight loss”. The “weight to which mice fell (severe weight loss)” value (L1210 leukemia; 50, 100 and 200 mkd × 5 i.p.) was 13 to 14 g, the “Survival Range” value (L1210 leukemia; 50 mkd × 5 i.p.) was 8 to 9 days and the Median survival (L1210 leukemia; 50 mkd × 5 i.p.) was 9 days. The “Mean ± SD survival” value (L1210 leukemia; 50 mkd × 5 i.p.) was 8.6 ± 0.2, the “Survival Range” value (L1210 leukemia; 100 mkd × 5 i.p.) was 7 to 8 days and the Median survival (L1210 leukemia; 100 mkd × 5 i.p.) was 8 days. For the same compound, the “Mean ± SD survival” value (L1210 leukemia; 100 mkd × 5 i.p.) was 7.8 ± 0.2, the “Survival Range” value (L1210 leukemia; 200 mkd × 5 i.p.) was 7 to 8 days and the Median survival (L1210 leukemia; 200 mkd × 5 i.p.) was 8 days. For the same compound, the “Mean ± SD survival” value (L1210 leukemia; 200 mkd × 5 i.p.) was 7.8 ± 0.2, the therapeutic effect (L1210/5-FU leukemia; 25 mkd × 5) was “did not” and the “% ILS (increase in life span)” value (L1210/5-FU leukemia; 25 mkd × 5 i.p.) was 12%. The “Mean Animal Weight” value (L1210/5-FU leukemia; 25 mkd × 5 i.p.) was 17.6 g, the “Survival Range” value (L1210/5-FU leukemia; 25 mkd × 5 i.p.) was 5 to 9 days and the Median survival (L1210/5-FU leukemia; 25 mkd × 5 i.p., control 9) was 8 days. For the same compound, the “Mean ± SD survival” value (L1210/5-FU leukemia; 25 mkd × 5 i.p., control 9.25 ± 0.2) was 7.6 ± 0.7 days.
With `O=c1[nH]c(=O)n([C@H]2C[C@H](O)[C@@H](CO)O2)cc1F` [5-FdUr, 5-Fluorodeoxyuridine, reference compound] the IC50 (L1210 leukemia cells [2]; L1210, with 1×10^-5 M thymidine) was > 0.01 µM and the IC50 (L1210 leukemia cells [2]; L1210, without added thymidine) was 0.0003 µM.
For `Nc1ccn([C@@H]2O[C@H](CO)[C@@H](O)[C@@H]2O)c(=O)n1` [ara-C, Cytosine Arabinoside], the “Survival Range” value (L1210 leukemia; 50 mkd × 5 i.p.) was 9 to 14 days, the Median survival (L1210 leukemia; 50 mkd × 5 i.p.) was 14 days and the “Mean ± SD survival” value (L1210 leukemia; 50 mkd × 5 i.p.) was 13.0 ± 1.0. The “Survival Range” value (L1210 leukemia; 100 mkd × 5 i.p.) was 14 to 15 days, the Median survival (L1210 leukemia; 100 mkd × 5 i.p.) was 14 days and the “Mean ± SD survival” value (L1210 leukemia; 100 mkd × 5 i.p.) was 14.4 ± 0.2. The “Survival Range” value (L1210 leukemia; 200 mkd × 5 i.p.) was 8 to 19 days, the Median survival (L1210 leukemia; 200 mkd × 5 i.p.) was 9 days and the “Mean ± SD survival” value (L1210 leukemia; 200 mkd × 5 i.p.) was 12.4 ± 2.3. The “% ILS (increase in life span)” value (L1210 leukemia; ara-C, 50 mkd × 5 i.p., p < .05) was 104%, the “% ILS (increase in life span)” value (L1210 leukemia; ara-C, 100 mkd × 5 i.p., p < .01) was 126% and the “% ILS (increase in life span)” value (L1210 leukemia; ara-C, 200 mkd × 5 i.p., p < .01) was 95%. For the same compound, the effect on lifespan (L1210 leukemia; i.p. 5 day schedule, 50, 100 and 200 mg/kg) was “most effective causing a doubling of lifespan”, the “Survival Range” value (L1210/ara-C leukemia; 100 mkd × 5 i.p.) was 7-7 days and the “% ILS (increase in life span)” value (L1210/ara-C leukemia; 100 mkd × 5 i.p., NS) was 0%. For the same compound, the Median survival (L1210/ara-C leukemia; 100 mkd × 5 i.p., control 7) was 7 days, the “Mean ± SD survival” value (L1210/ara-C leukemia; 100 mkd × 5 i.p., control 7.1 + 0.1) was 0 days and the therapeutic effect (L1210/ara-C leukemia; mice with L1210/ara-C leukemia (Table 4)) was “no therapeutic effect”. For the same compound, the “Mean Animal Weight” value (L1210/ara-C leukemia; mouse, in vivo, ip) was 20.0 g.
For `COC1OC[C@@H](OC(C)=O)[C@@H](OC(C)=O)[C@]1(F)n1cc(F)c(=O)[nH]c1=O` (stereo partly drawn) [compound 85027, Methyl 3,4-di-0-acetyl-2-deoxy-2(R)-[1H,3H-2,4-dioxo-5-fluoro-1-pyrimidinyl]-2-fluoro-α-D-arabinopyranoside [5b] and Methyl 3,4-di-0-acetyl-2-deoxy-2(R)-[1H,3H-2,4-dioxo-5-fluoro-1-pyrimidinyl]-2-fluoro-β-D-arabinopyranoside[6b]], the IC50 (L1210 leukemia cells [1]) was 34 µM, the “Survival Range” value (L1210 leukemia; 50 mkd × 5 i.p.) was 8-8 days and the Median survival (L1210 leukemia; 50 mkd × 5 i.p.) was 8 days. The “Mean ± SD survival” value (L1210 leukemia; 50 mkd × 5 i.p.) was 8 ± 0, the “Survival Range” value (L1210 leukemia; 100 mkd × 5 i.p.) was 7 to 8 days and the Median survival (L1210 leukemia; 100 mkd × 5 i.p.) was 8 days. The “Mean ± SD survival” value (L1210 leukemia; 100 mkd × 5 i.p.) was 7.8 ± 0.2, the “Survival Range” value (L1210 leukemia; 200 mkd × 5 i.p.) was 8 to 9 days and the “therapeutic activity compared with araC” value (L1210 leukemia; 200 mkd × 5 i.p.) was “less therapeutic activity than araC”. The Median survival (L1210 leukemia; 200 mkd × 5 i.p.) was 8 days, the “Mean ± SD survival” value (L1210 leukemia; 200 mkd × 5 i.p.) was 8.2 ± 0.22 and the “% ILS (increase in life span)” value (L1210 leukemia; 85027, 50 mkd × 5 i.p., p < 0.01) was 25%. For the same compound, the “% ILS (increase in life span)” value (L1210 leukemia; 85027, 100 mkd × 5 i.p., p < 0.05) was 22%, the “% ILS (increase in life span)” value (L1210 leukemia; 85027, 200 mkd × 5 i.p., p < 0.01) was 29% and the “cross resistance to ara-C and 5-FU” value (L1210/ara-C leukemia; summary of L1210/ara-C and L1210/5-FU tests) was “not cross resistant”. The “reversal of cellular cytotoxicity by exogenous nucleosides” value (L1210 leukemia cells [2]; exogenous thymidine, uridine or deoxyuridine, tissue culture) was “not reversed by exogenous thymidine, uridine or deoxyuridine” and the “effect of added nucleoside on the IC50” value (L1210 leukemia cells [2]; thymidine (1×10^-5 M), uridine (1×10^-4 M) or deoxyuridine (1×10^-5 M)) was < 10%.
In the case of `CCCCCC(=O)O[C@@H]1[C@H](OC(=O)CCCCC)COC(OC)[C@@]1(F)n1ccc(=O)[nH]c1=O` (stereo partly drawn) [compound 85058, Methyl 2-deoxy-2(R)-[1H,3H-2,4-dioxo-1-pyrimidinyl]-2-fluoro-3,4-di-0-hexanoyl-α-D-arabinopyranoside [5d] and Methyl 2-deoxy-2(R)-[1H,3H-2,4-dioxo-1-pyrimidinyl]-2-fluoro-3,4-di-0-hexanoyl-β-D-arabinopyranoside [6d]], the IC50 (L1210 leukemia cells [1]) is reported as 40 µM and the “growth inhibitory activity in words” value (L1210 leukemia cells [1]) is reported as “did not significantly affect activity”.
With `COC1OC[C@@H](OC(C)=O)[C@@H](OC(C)=O)[C@]1(F)n1cc(C)c(=O)[nH]c1=O` (stereo partly drawn) [compound 85060, Methyl 3,4-di-0-acetyl-2-deoxy-2(R)-[1H,3H-2,4-dioxo-5-methyl-1-pyrimidinyl]-2-fluoro-α-D-arabinopyranoside [5c] and Methyl 3,4-di-0-acetyl-2-deoxy-2(R)-[1H,3H-2,4-dioxo-5-methyl-1-pyrimidinyl]-2-fluoro-β-D-arabinopyranoside [6c]] the IC50 (L1210 leukemia cells [1]) was > 100 µM and the “growth inhibitory activity in words” value (L1210 leukemia cells [1]) was “inactive”.
